Measurements reported in patent US20240425478A1, “CYCLOPENTYLPYRAZOLE CDK2 INHIBITORS” (Genentech, Inc., priority 2021, published 2024).
Where two headings read alike, the source gives them in different places.

How the values were obtained:
SKOV-3 (ATCC HTB-77) = test: SKOV-3 EdU incorporation cell proliferation assay (CDK4/6-dependent); assay type: cell-based; conditions: for IC50: Homo sapiens, cellular assay, read-out: CDK4/6 SKOV-3 IC50
Summary of the method: (§1)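 Cells in RPMI/10% FBS dosed with compound (0.5% DMSO final) for 16 h at 37 °C, 5% CO2, then EdU 0.5 μM final for 8 h before fixation and imaging. IC50 from 4-parameter logistic fit of EdU-positive cell fraction versus dose.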

HCT116 cells = test: p-H3 HCT-116 mitotic release cell proliferation assay (cellular CDK1); assay type: cell-based; conditions: for IC50: Homo sapiens, HCT-116, cellular assay, read-out: CDK1 p-H3 IC50
Procedure: Inhibition of cellular CDK1 determined by release of cells from nocodazole-induced mitotic arrest, as measured by decrease in phospho-Histone H3. Histone H3 (Ser 10) level is detected in cell lysates by producing a Fluorescence Resonance Energy Transfer (FRET) signal between two antibodies, Phospho-Histone H3 Cryptate (acting as the donor) and Phospho-Histone H3 d2 (acting as the acceptor).
Plates are allowed to rest overnight at 37° C./5% CO2. The following morning, nocodazole is diluted in complete medium, and 5 μL is added to each test well and positive control well for a final concentration of 500 nM. Plates are then incubated for 16 hours at 37° C./5% CO2. […] 10 μL of diluted compound is then transferred to the cell plate (final DMSO concentration 0.1%). Cell plates are then incubated for 4 hours in 37° C. 5% CO2. A cell lysis buffer is prepared on ice using reagents from the Phospho-Histone H3 (Ser10) cellular kit (Cisbio-64HH3PEG). Supernatant is discarded from the cell plate and 80 μL of the supplemented cell lysis buffer (1:99 dilution of the Blocking Reagent and the 1× cell lysis buffer provided in the kit) is added to each of the experimental wells. The cell lysis reaction is allowed to proceed at room temperature while shaking vigorously for 30 minutes. The 384-well HTRF (Homogeneous Time Resolved Fluorescence) plate is prepared by adding 2 μL of each diluted antibody (Phospho-Histone H3 Cryptate antibody and Phospho-Histone H3 d2 antibody diluted 19:1 in a detection buffer) and 12 μL of the supplemented cell lysis buffer to each well in the HTRF plate. 4 μL of the cell lysate is added to the prepared HTRF plate which is then sealed and the reaction is allowed to proceed for a minimum of 2 hours at room temperature.

[1] = biological target: T1, Cyclin Dependent Kinase 2/Cyclin E1 (CDK2-cycE1) (Homo sapiens, UniProt P24941); test: CDK2-cycE1 TR-FRET (LANCE) enzyme assay; assay type: biochemical; conditions: for FS CDK1/CDK2 / FS CDK4/CDK2: fold selectivity; for increased fold-selectivity CDK4/CDK2 over Comparator C: (+) sign after FS CDK4/CDK2;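 for improvement in potency against CDK2 (Ki) over Comparator C: fold lower CDK2 Ki than comparator c (Ki 0.032 µM)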
T1 construct: purchased ProQinase 0050-0055-1
Summary of the method: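 Compound dose responses pre-incubated 30 min with CDK2-cycE1 in 50 mM HEPES pH 7.5, 10 mM MgCl2, 2 mM TCEP, 0.05% BGG, 0.01% Brij 35. Reaction quenched with EDTA (15 mM final), phospho-MBP detected by Eu-anti-phospho-MBP TR-FRET (acceptor/donor ratio). Inhibition constants from Morrison equation.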

[2] = biological target: T2, Cyclin Dependent Kinase 4/Cyclin D3 (CDK4-cycD3) (Homo sapiens, UniProt P11802); test: CDK4-cycD3 TR-FRET (LANCE) enzyme assay; assay type: biochemical; conditions: for Ki: enzymatic assay
T2 construct: purchased Carna Biosciences 04-105
Summary of the method: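 Compound dose responses pre-incubated 30 min with enzyme mix in 50 mM HEPES pH 7.5, 10 mM MgCl2, 2 mM TCEP, 0.05% BGG, 0.01% Brij 35. Reaction quenched with EDTA (15 mM final); Eu-anti-phospho-4E-BP1 TR-FRET detection, acceptor/donor ratio. Ki derived by Morrison equation.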

[3] = biological target: T3, Cyclin Dependent Kinase 1/Cyclin A2 (CDK1-cycA2) (Homo sapiens, UniProt P06493); test: CDK1-cycA2 TR-FRET (Lance) enzyme assay; assay type: biochemical; conditions: for Ki: enzymatic assay
T3 construct: purchased ProQinase 0134-0054-1
Summary of the method: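 Human CDK1/cyclin A2 pre-incubated 30 min with compound dose responses in 50 mM HEPES pH 7.5, 10 mM MgCl2, 2 mM TCEP, 0.05% BGG, 0.01% Brij 35. Reaction quenched with EDTA (15 mM final); TR-FRET readout using Eu-anti-phospho-4E-BP1, acceptor/donor ratio. Inhibition constants from Morrison equation.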

[4] = system: OVISE (JCRB1043, CCNE1-amplified); test: OVISE EdU incorporation cell proliferation assay (CDK2-dependent); assay type: cell-based; conditions: for IC50: cellular assay, read-out: CDK2 OVISE IC50; for FS SKOV-3/OVISE / FS p-H3/OVISE: fold selectivity; for FS p-H3/OVISE: cellular p-H3 IC50 over OVISE IC50; for increased fold-selectivity SKOV-3/OVISE over Comparator C: (+) sign after FS SKOV-3/OVISE; for improvement in CDK2 OVISE cell potency over Comparator C: in brackets after OVISE IC50, Comparator C 5.5 μM
Summary of the method: as §1

[5] = Table O, enzymatic assay, read-out: CDK2 Ki
[6] = Table O, enzymatic CDK1 Ki over CDK2 Ki
[7] = Table O, enzymatic CDK4 Ki over CDK2 Ki
[8] = Table Q, enzymatic assay, read-out: CDK2 Ki
[9] = read-out: CDK2 activity / potency (enzymatic assay)
[10] = Table O, cellular SKOV-3 IC50 over OVISE IC50
[11] = fold selectivity, enzymatic Ki ratio, Table P

T3 sequence (P06493 whole entry): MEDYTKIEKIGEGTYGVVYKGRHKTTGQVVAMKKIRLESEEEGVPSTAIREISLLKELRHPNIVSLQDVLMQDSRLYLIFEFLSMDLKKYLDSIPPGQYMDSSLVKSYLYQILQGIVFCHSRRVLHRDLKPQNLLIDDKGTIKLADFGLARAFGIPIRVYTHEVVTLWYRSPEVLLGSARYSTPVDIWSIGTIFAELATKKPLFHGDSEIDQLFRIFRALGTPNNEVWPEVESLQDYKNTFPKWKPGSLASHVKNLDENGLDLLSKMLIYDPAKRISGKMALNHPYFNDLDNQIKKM
T3 sequence (P20248 whole entry partner): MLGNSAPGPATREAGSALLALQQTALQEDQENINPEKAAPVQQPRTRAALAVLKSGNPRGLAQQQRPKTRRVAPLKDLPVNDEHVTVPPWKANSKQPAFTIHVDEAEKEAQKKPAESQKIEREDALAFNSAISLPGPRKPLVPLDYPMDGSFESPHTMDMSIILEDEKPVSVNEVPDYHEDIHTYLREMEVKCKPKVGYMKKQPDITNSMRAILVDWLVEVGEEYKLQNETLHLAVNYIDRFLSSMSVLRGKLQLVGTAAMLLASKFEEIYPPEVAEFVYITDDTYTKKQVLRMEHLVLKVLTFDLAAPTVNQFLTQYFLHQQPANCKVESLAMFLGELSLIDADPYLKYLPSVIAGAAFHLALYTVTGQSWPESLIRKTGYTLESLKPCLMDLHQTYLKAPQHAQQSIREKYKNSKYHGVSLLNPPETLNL
T2 sequence (P11802 whole entry): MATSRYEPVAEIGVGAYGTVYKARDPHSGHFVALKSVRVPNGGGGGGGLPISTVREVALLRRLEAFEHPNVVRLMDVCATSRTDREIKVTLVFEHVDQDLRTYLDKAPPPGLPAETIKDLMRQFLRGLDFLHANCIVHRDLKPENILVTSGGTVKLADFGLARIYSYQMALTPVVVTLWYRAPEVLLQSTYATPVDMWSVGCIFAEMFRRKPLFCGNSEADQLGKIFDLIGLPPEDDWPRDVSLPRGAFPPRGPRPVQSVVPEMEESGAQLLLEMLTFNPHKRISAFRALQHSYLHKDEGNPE
T2 sequence (P30281 whole entry partner): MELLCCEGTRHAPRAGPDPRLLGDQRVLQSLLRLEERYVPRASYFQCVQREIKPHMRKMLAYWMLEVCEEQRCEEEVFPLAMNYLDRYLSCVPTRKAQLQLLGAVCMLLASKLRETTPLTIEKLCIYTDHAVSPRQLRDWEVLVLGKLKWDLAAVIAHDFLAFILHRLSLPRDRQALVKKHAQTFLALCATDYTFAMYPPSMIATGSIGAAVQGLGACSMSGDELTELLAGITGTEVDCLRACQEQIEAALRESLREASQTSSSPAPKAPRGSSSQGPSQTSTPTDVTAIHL

Compound | IC50 (SKOV-3 (ATCC HTB-77); SK-OV-3, Table O) [nM] | IC50 (SKOV-3 (ATCC HTB-77); SK-OV-3, Table Q) [nM] | IC50 (HCT116 cells; Table O) [nM] | improvement in potency against CDK2 (Ki) over Comparator C [1] [fold] | Ki [1, 5] [nM] | FS CDK1/CDK2 [1, 6] | FS CDK4/CDK2 [1, 7] | increased fold-selectivity CDK4/CDK2 over Comparator C ([1]; Table Q) | Ki [1, 8] [nM] | FS CDK1/CDK2 ([1]; Table Q, enzymatic) | FS CDK4/CDK2 ([1]; Table Q, enzymatic) | Ki [1, 9] [nM] | Ki ([2]; Table O) [nM] | Ki ([3]; Table O) [nM] | IC50 ([4]; Table O) [nM] | FS SKOV-3/OVISE [4, 10] | FS p-H3/OVISE ([4]; Table O) | increased fold-selectivity SKOV-3/OVISE over Comparator C ([4]; Table Q) | FS SKOV-3/OVISE ([4]; Table Q, cellular) | improvement in CDK2 OVISE cell potency over Comparator C ([4]; Table Q) [fold] | further results
CNc1nccc(Nc2cc([C@H]3CC[C@@H](OC(=O)NC(C)C)C3)[nH]n2)n1 [Example 2H, (1R,3S)-3-(3-((2-(methylamino)pyrimidin-4-yl)amino)-1H-pyrazol-5-yl)cyclopentyl isopropylcarbamate] | 1100 | 1100 | 32 | 114 | 0.28 | 27 | 64 | (+) (The (+) sign in Table Q signifies desirable increased fold-selectivity of the exemplary compounds over Comparator C) | 0.28 | 27 | 64 | ≤ 1 | 18 | 7.5 | 67 | 16 | 0.48 | (+) (The (+) sign in Table Q signifies desirable increased fold-selectivity of the exemplary compounds over Comparator C) | 16 | 82 | 
C[C@H](NC(=O)O[C@@H]1CC[C@H](c2cc(Nc3ccc(=O)n(C)n3)n[nH]2)C1)c1ccccc1 [Example 6E, (1R,3S)-3-(3-((1-methyl-6-oxo-1,6-dihydropyridazin-3-yl)amino)-1H-pyrazol-5-yl)cyclopentyl ((S)-1-phenylethyl)carbamate] | 15000 |  | 290 |  | 2.9 | 17 | 6.2 |  |  |  |  |  | 18 | 48 | 320 | 47 | 0.91 |  |  |  | 
CNC(=O)c1cnc(Nc2cc([C@H]3CC[C@@H](OC(=O)NC45CC(C4)C5)C3)[nH]n2)c(C)n1 [Example 9E, (1R,3S)-3-(3-((3-methyl-5-(methylcarbamoyl)pyrazin-2-yl)amino)-1H-pyrazol-5-yl)cyclopentyl bicyclo[1.1.1]pentan-1-ylcarbamate] | 1000 |  | 220 |  | 2.1 | 33 | 90 |  |  |  |  |  | 190 | 69 | 200 | 5 | 1.0 |  |  |  | 
CC(C)(C)NC(=O)O[C@@H]1CC[C@H](c2cc(NC(=O)Cc3ccnnc3)n[nH]2)C1 [Comparator A, reference compound] |  |  |  |  |  |  |  |  |  |  |  | 0.17 |  |  |  |  |  |  |  |  | IC50 (SKOV-3 (ATCC HTB-77); SK-OV-3, Table P): 1700 nM; FS SKOV-3/OVISE (SKOV-3 (ATCC HTB-77); fold selectivity, cellular IC50 ratio (CDK4/6 over CDK2), Table P): 43; pH3/OVISE fold selectivity (CDK1 over CDK2, cellular assay data) (HCT116 cells): 0.78 fold; IC50 (HCT116 cells; Table P): 31 nM; FS p-H3/OVISE (HCT116 cells; fold selectivity, cellular IC50 ratio (CDK1 over CDK2), Table P): 0.78; Ki ([2]; Table P): 38 nM; FS CDK4/CDK2 [2, 11]: 224; Ki ([3]; Table P): 9.1 nM; FS CDK1/CDK2 [3, 11]: 54; IC50 ([4]; Table P): 40 nM
Cc1cncc(Nc2cc([C@H]3CC[C@@H](OC(=O)NC(C)C)C3)[nH]n2)c1 [Example 2K, (1R,3S)-3-(3-((5-methylpyridin-3-yl)amino)-1H-pyrazol-5-yl)cyclopentyl isopropylcarbamate] | 7700 | 7700 | 87 | 10 | 3.2 | 18 | 110 | (+) (The (+) sign in Table Q signifies desirable increased fold-selectivity of the exemplary compounds over Comparator C) | 3.2 | 18 | 110 |  | 340 | 59 | 190 | 41 | 0.46 | (+) (The (+) sign in Table Q signifies desirable increased fold-selectivity of the exemplary compounds over Comparator C) | 41 | 28.9 | 
Cc1nccnc1Nc1cc([C@H]2CC[C@@H](OC(=O)NC(C)C)C2)[nH]n1 [Example 2T, (1R,3S)-3-(3-((3-methylpyrazin-2-yl)amino)-1H-pyrazol-5-yl)cyclopentyl isopropylcarbamate] | 1500 | 1500 | 120 | 37 | 0.86 | 74 | 170 | (+) (The (+) sign in Table Q signifies desirable increased fold-selectivity of the exemplary compounds over Comparator C) | 0.86 | 74 | 170 | ≤ 1 | 150 | 64 | 52 | 29 | 2.3 | (+) (The (+) sign in Table Q signifies desirable increased fold-selectivity of the exemplary compounds over Comparator C) | 29 | 106 | increased fold-selectivity CDK1/CDK2 over Comparator C ([1]; Table Q, (+) sign after FS CDK1/CDK2): (+) (The (+) sign in Table Q signifies desirable increased fold-selectivity of the exemplary compounds over Comparator C)
